Test results from US10465227B2, “Microbial testing devices, methods of making microbial testing devices and methods of identifying novel antimicrobial drug candidates” (BOARD OF REGENTS, THE UNIVERSITY OF TEXAS SYSTEM, priority 2010, dated 2019).

Test system: C. albicans biofilms
Experiment: Susceptibility testing of preformed C. albicans biofilms in CaBChip (FUN 1 fluorescence)
Type: cell-based, Candida albicans strain SC5314
Conditions: 24 h preformed biofilms on CaBChip, 24 h drug exposure; for SMIC50 / SMIC80: FUN 1 staining
Procedure: A four-factor, two-level factorial design was performed using MINITAB (Minitab Solutions Inc., State College, Pa.) and DESIGN EXPERT (Stat-Ease Inc., Minneapolis, Minn.) software to obtain optimal conditions of media concentration, seeding density, collagen concentration and PSMA coating concentration for wash-resistant biofilm growth on the CaBChip. The response (output) metrics were true biofilm yield and robust attachment, measured using microarray scanner and light microscope. For preparation of inocula for printing and biofilm formation in the CaBChip, cells harvested from overnight YPD cultures were washed twice in sterile phosphate buffered saline (PBS; 10 mM phosphate buffer, 2.7 mM potassium chloride, 137 mM sodium chloride (pH 7.4) (Sigma) by centrifugation at 3000 g. The cells were then resuspended in Reconstruction buffer (0.2N NaOH solution with 2.2% (wt/vol) Sodium Bicarbonate and 4.8% (wt/vol) HEPES). One hundred fold dilutions of the suspended cells were prepared and counted using a hemocytometer on a bright field microscope. Following count, a suspension of cells was prepared in reconstruction buffer at a cell density of 5×10^7 cells/mL, which was diluted ten times by addition of 10×RPMI-1640 supplemented with L-glutamine and buffered with morpholinepropanesulfonic acid (Angus Buffers and Chemicals, Niagara Falls, N.Y.) containing collagen (1.8 mg/ml) (Type 1 from rat tail, BD Biosciences, Bedford, Mass.), to give a final concentration of cells of […]. The suspension containing yeast cells, collagen and media was printed (50 nL per spot) on the functionalized PSMA-coated glass slides using a microarray spotter (Omnigrid Micro, Digilab Inc., Holliston, Mass.). Printing was carried out by non-contact deposition using conically tapered 190μ orifice ceramic tips (Digilab). The resulting spots were approximately 700μ in diameter, spaced 1.2 mm apart; spots were printed in an array of 48 rows and 16 columns. In a standard print nm, the tips were primed, rinsed in running water and vacuum dried twice after each loading and printing step. The cell suspension was kept on ice to prevent the gelation of collagen before printing and agitated gently just prior to placement on the printing robot to ensure a uniformly mixed cell suspension. A relative humidity of 97% was maintained during printing to prevent the drying of the biofilm spots. All microarray operations such as aspiration, dispensing, priming, printing and spatial distribution of array were controlled by AxSys program (Digilab). All surfaces, including the source plate station, wash and vacuum station, vacuum slide platter and printing chamber were sterilized by wiping with 70% isopropanol. In our experience, these procedures ensure that there is no detectable contamination of wells in the plates or of spots on the microarray. After printing, the slides were placed inside humidifier chambers (Arraylt Corporation, Sunnyvale, Calif.), which were placed inside a 37 C incubator over different periods of time to allow for biofilm formation.
FUN 1 [2-chloro-4-(2,3-dihydro-3-methyl-(benzo-1,3-thiazol-2-yl)-methylidene)-1-phenylquinolinium iodide] (Invitrogen Corp., Carlsbad, Calif.) was used to stain and determine viability (levels of metabolic activity) of C. albicans cells within the biofilms formed in the chips. This membrane-permeable fluorescent dye is internalized and processed by metabolically active fungal cells, and has excitation and emission spectra that are compatible with the sets of lasers and filters installed in most microarray scanners. Briefly, the CaBChip was stained with 0.5 tM FUN 1, by simply dunking the entire CaBChip in a staining jar, and incubated in the dark at 37° C. for 30 min. Following incubation, the chip was washed three times by dunking in PBS in order to remove excess stain. The slides were then air-dried and scanned in a microarray scanner (Genepix Personal4100A, Axon Instruments, Union City, Calif.). […]

Row | Compound | susceptibility of biofilms formed on CaBChip (in words) | calculated IC50 (FUN 1 fluorescence, Hill equation fit) | SMIC50 | SMIC80 | IC50 (Candida albicans, FUN 1 fluorescence, Hill equation fit, read-out: calculated IC50)
1 | C[C@@H]1[C@H](O)[C@@H](C)/C=C/C=C/C=C/C=C/C=C/C=C/C=C/[C@H](O[C@@H]2O[C@H](C)[C@@H](O)[C@H](N)[C@@H]2O)C[C@@H]2O[C@](O)(C[C@@H](O)C[C@@H](O)[C@H](O)CC[C@@H](O)C[C@@H](O)CC(=O)O[C@H]1C)C[C@H](O)[C@H]2C(=O)O [amphotericin B] | effective against biofilms formed on CaBChip, but only at relatively high concentrations | 0.27 ± 0.04 µg/mL | 0.5 µg/mL | 1 µg/mL | 
2 | OC(Cn1cncn1)(Cn1cncn1)c1ccc(F)cc1F [fluconazole] | intrinsically resistant to fluconazole |  | > 1,024 μg/ml | > 1,024 μg/ml | > 1020 µg/mL
